{"source": "patent US9447157B2", "about": "“Nitration shielding peptides and methods of use thereof” (Augusta University Research Institute, Inc., priority 2013, dated 2016)", "target": "T1, PKG-1α (Homo sapiens, UniProt Q13976)", "T1 construct": "transfected with an expression plasmid containing a full length WT-PKG-1α cDNA; made in house; host or cells: HEK-293T (methods); the results paragraph b527 says PASMC", "T1 sequence (Q13976 2-671)": "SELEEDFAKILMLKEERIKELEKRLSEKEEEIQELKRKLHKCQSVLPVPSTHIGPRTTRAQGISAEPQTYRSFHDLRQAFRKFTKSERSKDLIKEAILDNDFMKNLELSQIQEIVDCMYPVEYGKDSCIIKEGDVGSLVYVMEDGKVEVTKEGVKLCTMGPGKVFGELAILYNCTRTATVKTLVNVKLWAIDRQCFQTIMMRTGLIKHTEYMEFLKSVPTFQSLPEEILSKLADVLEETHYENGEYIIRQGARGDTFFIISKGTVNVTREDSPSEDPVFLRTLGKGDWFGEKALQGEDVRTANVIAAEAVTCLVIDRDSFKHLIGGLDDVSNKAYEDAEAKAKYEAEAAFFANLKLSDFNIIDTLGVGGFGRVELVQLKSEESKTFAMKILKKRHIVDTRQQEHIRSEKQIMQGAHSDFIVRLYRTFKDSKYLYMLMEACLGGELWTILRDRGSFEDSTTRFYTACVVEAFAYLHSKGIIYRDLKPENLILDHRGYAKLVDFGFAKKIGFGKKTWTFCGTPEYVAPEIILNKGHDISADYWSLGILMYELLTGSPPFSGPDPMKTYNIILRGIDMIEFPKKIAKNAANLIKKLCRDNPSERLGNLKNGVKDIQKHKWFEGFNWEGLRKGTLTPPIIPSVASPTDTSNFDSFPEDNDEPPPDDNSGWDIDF", "test": "3-NT-Y247-PKG-1α immunoblot in transfected PASMC", "assay_type": "cell-based", "conditions": "PASMC transfected with WT-PKG-1α, SIN-1 500 μM 30 min", "protocol": "The 3-NT Y247 PKG-1α specific antibody was raised against a synthetic peptide antigen ENGE(Y-NO2)[…], where Y-NO2 represent 3-nitrotyrosine. The peptide was used to immunize rabbits. Tyrosine nitration-reactive rabbit antiserum was first purified by affinity chromatography. Further purification was carried out using immunodepletion by non-nitrated peptide […] resin chromatography, after which the resulting eluate was tested for antibody specificity by immunoblotting and immune-histochemistry with fluorescent staining.\nCells were prepared as previously described (Sud, N., et al., American Journal of Physiology 293, L1444-1453 (2007); Sharma, S., et al., American Journal of Physiology 294, L46-56 (2008)). Briefly, the cellular protein extracts were prepared by homogenizing the cells in lysis buffer (50 mM Tris-HCl, pH 7.6, 0.5% Triton X-100, and 20% glycerol) containing Halt protease inhibitor cocktail (Pierce, Rockford, Ill.). The extracts were then clarified by centrifugation (20,000 g for 20 min at 4° C.). […] Reactive bands were visualized using chemi-luminescence (Pierce Laboratories, Rockford, Ill.) on a Kodak 440CF image station. The band intensity was quantified using Kodak 1D image processing software. […]\nPASMC were transiently transfected with expression plasmids containing WT- or Y247FPKG-1α for 48 h. […] The fluorescent-stained sections were analyzed using confocal microscopy.", "data": [{"substance": "3-morpholinosydnonimine N-ethylcarbamide [SIN-1]", "values": [{"measurement": "WT-PKG-1α nitration (3-NT-Y247-PKG-1α antibody)", "value": "significantly increased"}]}]}
